The values that follow are results of earlier work, collected in US20030211945A1, “Natural herbicide compositions” (priority 2002, published 2003).

Structures are written as SMILES. Where two headings read alike, the source gives them in different places.

The data set has as its system selected weeds.

For the compound `CC(=O)O` [acetic acid], the weed control result was “variable results” (concentrations of acetic acid below about 5%) and “control selected weeds” (high concentrations of acetic acid).
